Series [1] concerns VCAM-1. Conditions: vascular endothelial cells; cited from earlier work.
A short description of series [2]: Clinical chemistries in serum of rats. The class given is in vivo, male Sprague-Dawley rats. Particulars: for response vs control in vivo at 0.3 %: Rattus norvegicus, po, 96 h; for ALP (alkaline phosphatase), percent of control / ALT (alanine aminotransferase), percent of control / AST (aspartate aminotransferase), percent of control / GLUC (glucose), percent of control: rat serum, diet 0.3%, 4 days. An excerpt: (§1) A typical experiment consisted of 4-6 groups of rats (N=5 per group) with 1 group being a control which received no MDL compound and the other groups being treated with 0.3% MDL compound. Some of the compounds were either repeated at 0.3% or evaluated again at the lower dose of 0.1%. Male Sprague-Dawley rats, 50-100 g, (Harlan Laboratories, Indianapolis, Ind.) were housed in groups of 5, fed ad libitum water and Purina Rodent chow (#5002) with or without MDL compound as a dietary admixture for 4 days. Dietary admixtures (0.3%) were made by mixing 1.2 grams of an MDL compound with 400 grams of Purina rodent chow (#5002). The MDL compound was mixed with approximately 50 grams of food using a mortar and pestle. This was added to the remainder of the food and mixed for 3 hours on a rotary mixer. In the morning of day 5, non-fasted rats were anesthetized with carbon dioxide, and blood was collected by cardiac puncture. Rats were sacrificed by cervical dislocation. Body weights and liver weights were recorded in grams. Food consumption was recorded as grams.cndot.day^-1.cndot.rat^-1. Deaths were recorded as mortality. Aliquots of fresh serum were used for clinical chemistries, thiobarbituric acid reactive substances (TBARS) and conjugated diene measurements. Aliquots of serum (~0.5mL) and whole livers were frozen at -20° C. for compound and metabolite concentration determination at a later time.
Blood was allowed to clot at room temperature for 30 minutes. Serum was obtained after centrifugation for 10 min at 4° C. at 3000 rpm in a Beckman J-6M/E centrifuge with a JS-4.2 rotor. Fresh serum was analyzed by a COBAS MIRA S autoanalyzer (Roche Diagnostics) using Roche diagnostic reagents for the following clinical chemistry measurements: alkaline phosphatase (ALP, kit #44553), alanine transaminase (ALT, kit #42375), aspartate aminotransferase (AST, kit #42381), total cholesterol (CHOL, kit #44334), triglyceride (TG, kit #44120), and glucose (GLU, kit #44558). ALP, ALT, and AST were calculated as units/L. Cholesterol, triglycerides, and glucose were calculated as mg/dL.

The subject of series [3] is oxidation of serum lipids. The experiment in a line: TBARS assay, rat serum. The class given is in vivo, male Sprague-Dawley rats. Conditions: Rattus norvegicus, po, 96 h, read-out: TBARS, percent of control.
Source text: as §1
In this assay the oxidation of serum lipids is initiated with CuSO4, resulting in the formation of aldehydes, such as malondialdehyde (MDA). Upon incubation with thiobarbituric acid, the absorbance of the aldehydes can be detected at 530-540 nm. As stated in the previous example, TBARS values which are lower than control serum values indicate the relative ability of a test compound to inhibit the oxidation of lipids in a sample. TBARS were measured as follows: 100 μL of serum were mixed with 400 μL of a 5 mmol CuSO4 solution and incubated at 37° C. for 3 hr. The reactions were stopped by addition of 1.0 mL of 20% trichloroacetic acid. Then 1.0 mL of 0.67% thiobarbituric acid in 0.05N sodium hydroxide was added, mixed, and the samples incubated for 30 min at 90° C. Samples were centrifuged briefly to pellet undissolved material, and the supernatants were transferred to a 96-well microtiter plate. Absorbances were measured at 540 nm using a Biotek model EL311 microplate reader. The nmoles of MDA produced were calculated from a standard curve of 0 to 10 nmoles of MDA prepared from malonaldehyde bis(dimethylacetal). Serum samples from treated rats were compared to serum samples from control rats that received no MDL compound.

Series [4] relates to oxidation of lipids. Description: Conjugated diene determination, rat serum. In kind it is in vivo, male Sprague-Dawley rats. Particulars: pooled rat serum, diet 0.3%, 4 days, mean of 2 determinations.
Source text: as §1
Conjugated diene lag phase is another indicator of the oxidation of lipids. Lipids exposed to Cu^++ form conjugated dienes that absorb ultraviolet light in the range of 230 to 235 nm. The lag phase of diene formation gives an indication of the amount of oxidation of the lipids. A lag phase longer than control samples indicate inhibition of the oxidation. Conjugated diene lay phase was determined using a Varian DMS200 spectrophotometer (fitted with a constant temperature, 5 cuvette sample changer) at 30° C. Twenty (20) μL of pooled serum were added to cuvettes containing 3.0 mL phosphate buffered saline, pH 7.5, and mixed. The absorbances of all cuvettes were measured, and the instrument baseline was set to zero using the lowest absorbing sample. Next, 100 μL of 1 mmol CuSO4 were added and immediately mixed. The absorbance of each cuvette was recorded at 2 min intervals for a period of 840 min. The data were captured and transferred to a Microsoft EXCEL® spreadsheet where the curves were smoothed and differentials obtained. Lag times were determined mathematically as minutes. Serum samples were pooled (N=5); data presented are the mean values of 2 determinations. Serum samples from treated rats were compared to serum samples from control rats that received no MDL compound.

Series [5] in a line: Animal parameters (food, body weight, liver weight, mortality) in rats. In kind it is in vivo, male Sprague-Dawley rats. Conditions: diet 0.3%, 4 days; for mortality at 96 h: in vivo, po, read-out: mortality (deaths per group); for mortality at 96 h / body wt., percent of control / lw/bw (liver weight/body weight), percent of control: rat.
Source text: as §1

Series [6] is described as follows: HPLC quantitation of compound and metabolite concentration in rat serum and liver. Conditions: diet 0.3%, 4 days; for Liver Parent = parent compound concentration: rat liver; for Serum Parent = parent compound concentration: rat serum. The class given is in vivo, male Sprague-Dawley rats.
Source text: as §1
Serum and liver concentrations of parent compound and the metabolites, bisphenol and diphenoquinone, were determined by reverse phase HPLC using a Waters 990 Powerline system. Livers (1 gram samples) were homogenized with 5.0 mL PBS, pH 7.4, using a Polytron tissue homogenizer at setting 5 for 20-30 seconds. Serum or liver homogenates were extracted as follows: 100μL of either serum or homogenate were added to 2.0 mL diethyl ether:ethanol (3:1) while vortexing the tube. The sample tubes were capped and centrifuged for 10 min at 5° C. at 3500 rpm in a Beckman GPKR centrifuge with a GH 3.7 rotor. The supernatants were transferred to clean tubes and dried under N2. Samples were reconstituted with 200 μL of acetonitrile:hexane:0.1M ammonium acetate (90:6.5:3.5, by vol.). Then, 100 μL were injected onto a Waters Deltapak C18-300 Å column, and eluted with an 83% acetonitrile:17% water mobile phase at a flow rate of 1.5 mL/min. Absorbances at the wavelengths of 240, 254, and 420 nm were recorded. Compound concentrations were calculated from known quantities of authentic parent compounds after correction for recovery; the range of recovery from spiked samples was 40 to 100%. The lowest detectable limit for this class of compounds was ~0.5 μg/mL. […]. Concentrations were calculated as μg/mL of serum and μg/g of liver.

Where [7] appears, read: read-out: CHOL (total cholesterol), percent of control.
Setting [8] is: read-out: TRIG (triglycerides), percent of control.

Structures are written as SMILES. Like-named read-outs stand apart in the source and are kept apart here.

Consider `CC(=O)N[C@@H](CS)C(=O)O` [N-acetylcysteine], for which the “inhibition of cytokine-induced expression of VCAM-1” value in series [1] is given as “inhibit cytokine-induced expression of VCAM-1”.

Take `S=C(S)N1CCCC1` [pyrollidine dithiocarbamate]: in series [1], the “inhibition of cytokine-induced expression of VCAM-1” value is recorded as “inhibit cytokine-induced expression of VCAM-1”.

One may read the mortality as the percentage killed. On to `CC(=O)Oc1cc(C(C)(C)C)c(OC[Si](C)(C)c2ccccc2)cc1C(C)(C)C` [MDL 106,290, 2,5-Di-t-butyl-4-[(dimethylphenylsilyl)methyloxy]phenol acetic acid ester], for which the response vs control in vivo at 0.3 % in series [2] (setting [7]) is 153%. In series [2] (setting [8]), the response vs control in vivo at 0.3 % stood at 75%. In addition, in series [2], the “ALP (alkaline phosphatase), percent of control” value (“ALP … percent of control” below) turned out to be 118%; the “ALT (alanine aminotransferase), percent of control” value (“ALT … percent of control” below) is given as 89%; the “AST (aspartate aminotransferase), percent of control” value (“AST … percent of control” below) is on record as 84%; the “GLUC (glucose), percent of control” value is 109%. Further, the response vs control in vivo at 0.3 % in series [3] was 17%. Further, in series [4], the “CONJ. DIENE (conjugated diene lag phase)” value stood at 372 min. Besides, in series [5], the “food (grams eaten per day per rat), percent of control” value was determined as 108%; the mortality at 96 h turned out to be 0%; the “body wt., percent of control” value is 95%; the “lw/bw (liver weight/body weight), percent of control” value amounted to 104%.

Turning to `CC(=O)Oc1c(C)cc(OC[Si](C)(C)c2ccccc2)c(C)c1C` [MDL 103,157, 2,3,6-Trimethyl-4-[(dimethylphenylsilyl)methyloxy]phenol acetic acid ester], the response vs control in vivo at 0.3 % in series [2] (setting [7]) stood at 112%. Moreover, the response vs control in vivo at 0.3 % in series [2] (setting [8]) is 82%. In addition, in series [2], the “ALP … percent of control” value was determined as 144%; the “ALT … percent of control” value is 133%; the “AST … percent of control” value stood at 92%; the “GLUC (glucose), percent of control” value is on record as 100%. For the same molecule, the response vs control in vivo at 0.3 % in series [3] was determined as 94%. Also, in series [4], the “CONJ. DIENE (conjugated diene lag phase)” value came out at 50 min. In series [5], the “food (grams eaten per day per rat), percent of control” value is listed as 96%; the mortality at 96 h amounted to 0%; the “body wt., percent of control” value stood at 96%; the “lw/bw (liver weight/body weight), percent of control” value was determined as 120%. For the same molecule, in series [6], the “Liver Parent = parent compound concentration” value came out at 0 µg/g and the “Serum Parent = parent compound concentration” value was found to be 0 µg/mL.

For the molecule `CC(C)(C)c1cc(OC[Si](C)(C)c2ccccc2)ccc1OC(=O)CCC(=O)O` [MDL 104,399, 2-t-Butyl-4-[(dimethylphenylsilyl)methyloxy]phenol succinic acid ester], the response vs control in vivo at 0.3 % in series [2] (setting [7]) came out at 130%. Also, the response vs control in vivo at 0.3 % in series [2] (setting [8]) worked out at 168%. Also, in series [2], the “ALP … percent of control” value amounted to 91%; the “ALT … percent of control” value is recorded as 107%; the “AST … percent of control” value is listed as 102%; the “GLUC (glucose), percent of control” value is on record as 88%. Also, the response vs control in vivo at 0.3 % in series [3] stood at 41%. Also, the “CONJ. DIENE (conjugated diene lag phase)” value in series [4] turned out to be 395 min. In series [5], the “food (grams eaten per day per rat), percent of control” value was found to be 90%; the mortality at 96 h was determined as 0%; the “body wt., percent of control” value was determined as 101%; the “lw/bw (liver weight/body weight), percent of control” value came to 118%. Moreover, in series [6], the “Liver Parent = parent compound concentration” value came out at 0 µg/g and the “Serum Parent = parent compound concentration” value worked out at 0 µg/mL.

The values are drawn from patent US5608095A, “Alkyl-4-silyl-phenols and esters thereof as antiatherosclerotic agents” (Hoechst Marion Roussel, Inc., priority 1996, dated 1997).
